{"source": "the supplement of paper PMC10307832", "data": [{"compound": "C1CCC(CC1)N(CCNCCC2=C3C(=C(C=C2)O)NC(=O)CO3)C(=O)CCNCCC4=CC(=C(C=C4)Cl)Cl [AZ505] + Cc1nc(Nc2ncc(C(=O)Nc3c(C)cccc3Cl)s2)cc(N2CCN(CCO)CC2)n1 [Dasatinib] (partner 0.075 µM)", "assay": "relative viability (nuclei count vs DMSO), 5 days (fraction); higher = more cells survive", "conditions": "first compound 0.08 µM", "summary_of_the_method": "(§1)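 One day after seeding in 1536-well plates, lung cancer cell lines were dosed by pin tool. Dosing was either single-drug or a fixed anchor-drug dose plus five library-drug doses (not always all listed) in √10 steps. After 5 days, nuclei were stained in one fix-and-stain step and counted on 4× images, and relative viability is the nuclei count of treated wells over that of vehicle wells, given as the median of duplicate plates.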", "values": [{"cell line": "NCI-H727", "relative viability": 0.28}, {"cell line": "NCI-H1650", "relative viability": 0.298}, {"cell line": "NCI-H1993", "relative viability": 0.653}, {"cell line": "SK-LU-1", "relative viability": 0.182}, {"cell line": "NCI-H838", "relative viability": 0.233}, {"cell line": "LCLC-103H", "relative viability": 0.407}, {"cell line": "NCI-H520", "relative viability": 0.198}, {"cell line": "NCI-H2126", "relative viability": 0.578}, {"cell line": "EMC-BAC-2", "relative viability": 0.312}, {"cell line": "NCI-H2085", "relative viability": 0.246}, {"cell line": "HCC-366", "relative viability": 0.604}, {"cell line": "NCI-H1666", "relative viability": 0.745}, {"cell line": "NCI-H596", "relative viability": 0.605}, {"cell line": "LK-2", "relative viability": 0.254}, {"cell line": "NCI-H2087", "relative viability": 0.832}, {"cell line": "SK-MES-1", "relative viability": 0.373}, {"cell line": "H3255", "relative viability": 0.368}, {"cell line": "COR-L23", "relative viability": 0.351}, {"cell line": "COR-L 105", "relative viability": 0.383}, {"cell line": "LOU-NH91", "relative viability": 0.536}, {"cell line": "ChaGo-K-1", "relative viability": 0.663}, {"cell line": "NCI-H2170", "relative viability": 0.541}, {"cell line": "NCI-H2405", "relative viability": 0.187}, {"cell line": "HOP-62", "relative viability": 0.528}, {"cell line": "NCI-H522", "relative viability": 0.923}, {"cell line": "BEN", "relative viability": 0.359}, {"cell line": "HCC-78", "relative viability": 0.336}, {"cell line": "NCI-H1792", "relative viability": 0.734}, {"cell line": "NCI-H1563", "relative viability": 0.456}]}, {"compound": "C1CCC(CC1)N(CCNCCC2=C3C(=C(C=C2)O)NC(=O)CO3)C(=O)CCNCCC4=CC(=C(C=C4)Cl)Cl [AZ505] + Cc1nc(Nc2ncc(C(=O)Nc3c(C)cccc3Cl)s2)cc(N2CCN(CCO)CC2)n1 [Dasatinib] (partner 0.075 µM)", "assay": "relative viability (nuclei count vs DMSO), 5 days (fraction); higher = more cells survive", "conditions": "first compound 0.253 µM", "summary_of_the_method": "as §1", "values": [{"cell line": "NCI-H2342", "relative viability": 0.317}, {"cell line": "NCI-H1623", "relative viability": 0.466}, {"cell line": "NCI-H727", "relative viability": 0.274}, {"cell line": "NCI-H1650", "relative viability": 0.281}, {"cell line": "NCI-H1993", "relative viability": 0.722}, {"cell line": "SK-LU-1", "relative viability": 0.168}, {"cell line": "NCI-H838", "relative viability": 0.273}, {"cell line": "LCLC-103H", "relative viability": 0.415}, {"cell line": "NCI-H520", "relative viability": 0.217}, {"cell line": "NCI-H2126", "relative viability": 0.579}, {"cell line": "EMC-BAC-2", "relative viability": 0.329}, {"cell line": "NCI-H2085", "relative viability": 0.242}, {"cell line": "HCC-366", "relative viability": 0.625}, {"cell line": "NCI-H1666", "relative viability": 0.795}, {"cell line": "NCI-H596", "relative viability": 0.577}, {"cell line": "LK-2", "relative viability": 0.327}, {"cell line": "NCI-H2087", "relative viability": 0.669}, {"cell line": "SK-MES-1", "relative viability": 0.402}, {"cell line": "H3255", "relative viability": 0.316}, {"cell line": "COR-L23", "relative viability": 0.427}, {"cell line": "COR-L 105", "relative viability": 0.352}, {"cell line": "LOU-NH91", "relative viability": 0.537}, {"cell line": "ChaGo-K-1", "relative viability": 0.702}, {"cell line": "NCI-H2170", "relative viability": 0.608}, {"cell line": "NCI-H2405", "relative viability": 0.151}, {"cell line": "HOP-62", "relative viability": 0.644}, {"cell line": "NCI-H522", "relative viability": 0.843}, {"cell line": "LU99A", "relative viability": 0.475}, {"cell line": "BEN", "relative viability": 0.327}, {"cell line": "HCC-78", "relative viability": 0.411}, {"cell line": "NCI-H1563", "relative viability": 0.467}]}, {"compound": "C1CCC(CC1)N(CCNCCC2=C3C(=C(C=C2)O)NC(=O)CO3)C(=O)CCNCCC4=CC(=C(C=C4)Cl)Cl [AZ505] + Cc1nc(Nc2ncc(C(=O)Nc3c(C)cccc3Cl)s2)cc(N2CCN(CCO)CC2)n1 [Dasatinib] (partner 0.075 µM)", "assay": "relative viability (nuclei count vs DMSO), 5 days (fraction); higher = more cells survive", "conditions": "first compound 0.8 µM", "summary_of_the_method": "as §1", "values": [{"cell line": "NCI-H2342", "relative viability": 0.316}, {"cell line": "NCI-H1623", "relative viability": 0.598}, {"cell line": "NCI-H727", "relative viability": 0.372}, {"cell line": "NCI-H1650", "relative viability": 0.37}, {"cell line": "NCI-H1993", "relative viability": 0.611}, {"cell line": "SK-LU-1", "relative viability": 0.163}, {"cell line": "NCI-H838", "relative viability": 0.298}, {"cell line": "LCLC-103H", "relative viability": 0.393}, {"cell line": "NCI-H520", "relative viability": 0.181}, {"cell line": "NCI-H2126", "relative viability": 0.601}, {"cell line": "EMC-BAC-2", "relative viability": 0.322}, {"cell line": "NCI-H2085", "relative viability": 0.234}, {"cell line": "HCC-366", "relative viability": 0.78}, {"cell line": "NCI-H1666", "relative viability": 0.783}, {"cell line": "NCI-H596", "relative viability": 0.591}, {"cell line": "LK-2", "relative viability": 0.415}, {"cell line": "NCI-H2087", "relative viability": 0.808}, {"cell line": "SK-MES-1", "relative viability": 0.302}, {"cell line": "H3255", "relative viability": 0.369}, {"cell line": "COR-L23", "relative viability": 0.358}, {"cell line": "COR-L 105", "relative viability": 0.318}, {"cell line": "LOU-NH91", "relative viability": 0.452}, {"cell line": "ChaGo-K-1", "relative viability": 0.616}, {"cell line": "NCI-H2170", "relative viability": 0.444}, {"cell line": "NCI-H2405", "relative viability": 0.133}, {"cell line": "HOP-62", "relative viability": 0.484}, {"cell line": "NCI-H522", "relative viability": 0.801}, {"cell line": "LU99A", "relative viability": 0.618}, {"cell line": "BEN", "relative viability": 0.386}, {"cell line": "HCC-78", "relative viability": 0.333}, {"cell line": "NCI-H1792", "relative viability": 0.697}, {"cell line": "NCI-H1563", "relative viability": 0.498}]}, {"compound": "C1CCC(CC1)N(CCNCCC2=C3C(=C(C=C2)O)NC(=O)CO3)C(=O)CCNCCC4=CC(=C(C=C4)Cl)Cl [AZ505] + Cc1nc(Nc2ncc(C(=O)Nc3c(C)cccc3Cl)s2)cc(N2CCN(CCO)CC2)n1 [Dasatinib] (partner 0.075 µM)", "assay": "relative viability (nuclei count vs DMSO), 5 days (fraction); higher = more cells survive", "conditions": "first compound 2.53 µM", "summary_of_the_method": "as §1", "values": [{"cell line": "NCI-H2342", "relative viability": 0.346}, {"cell line": "NCI-H1623", "relative viability": 0.479}, {"cell line": "NCI-H1650", "relative viability": 0.321}, {"cell line": "NCI-H1993", "relative viability": 0.623}, {"cell line": "SK-LU-1", "relative viability": 0.161}, {"cell line": "NCI-H838", "relative viability": 0.28}, {"cell line": "LCLC-103H", "relative viability": 0.481}, {"cell line": "NCI-H520", "relative viability": 0.229}, {"cell line": "NCI-H2126", "relative viability": 0.646}, {"cell line": "EMC-BAC-2", "relative viability": 0.35}, {"cell line": "NCI-H2085", "relative viability": 0.252}, {"cell line": "HCC-366", "relative viability": 0.527}, {"cell line": "NCI-H1666", "relative viability": 0.828}, {"cell line": "NCI-H596", "relative viability": 0.657}, {"cell line": "LK-2", "relative viability": 0.431}, {"cell line": "NCI-H2087", "relative viability": 0.551}, {"cell line": "SK-MES-1", "relative viability": 0.353}, {"cell line": "H3255", "relative viability": 0.388}, {"cell line": "COR-L23", "relative viability": 0.383}, {"cell line": "COR-L 105", "relative viability": 0.342}, {"cell line": "LOU-NH91", "relative viability": 0.53}, {"cell line": "ChaGo-K-1", "relative viability": 0.657}, {"cell line": "NCI-H2170", "relative viability": 0.695}, {"cell line": "NCI-H2405", "relative viability": 0.203}, {"cell line": "HOP-62", "relative viability": 0.598}, {"cell line": "NCI-H522", "relative viability": 0.877}, {"cell line": "LU99A", "relative viability": 0.48}, {"cell line": "BEN", "relative viability": 0.355}, {"cell line": "HCC-78", "relative viability": 0.445}, {"cell line": "NCI-H1792", "relative viability": 0.69}, {"cell line": "NCI-H1563", "relative viability": 0.481}]}, {"compound": "C1CCC(CC1)N(CCNCCC2=C3C(=C(C=C2)O)NC(=O)CO3)C(=O)CCNCCC4=CC(=C(C=C4)Cl)Cl [AZ505] + Cc1nc(Nc2ncc(C(=O)Nc3c(C)cccc3Cl)s2)cc(N2CCN(CCO)CC2)n1 [Dasatinib] (partner 0.075 µM)", "assay": "relative viability (nuclei count vs DMSO), 5 days (fraction); higher = more cells survive", "conditions": "first compound 8 µM", "summary_of_the_method": "as §1", "values": [{"cell line": "NCI-H2342", "relative viability": 0.351}, {"cell line": "NCI-H1623", "relative viability": 0.612}, {"cell line": "NCI-H727", "relative viability": 0.504}, {"cell line": "NCI-H1650", "relative viability": 0.295}, {"cell line": "NCI-H1993", "relative viability": 0.737}, {"cell line": "SK-LU-1", "relative viability": 0.16}, {"cell line": "NCI-H838", "relative viability": 0.308}, {"cell line": "LCLC-103H", "relative viability": 0.451}, {"cell line": "NCI-H520", "relative viability": 0.26}, {"cell line": "NCI-H2126", "relative viability": 0.586}, {"cell line": "EMC-BAC-2", "relative viability": 0.354}, {"cell line": "NCI-H2085", "relative viability": 0.237}, {"cell line": "HCC-366", "relative viability": 0.608}, {"cell line": "NCI-H1666", "relative viability": 0.69}, {"cell line": "NCI-H596", "relative viability": 0.56}, {"cell line": "LK-2", "relative viability": 0.366}, {"cell line": "NCI-H2087", "relative viability": 0.884}, {"cell line": "SK-MES-1", "relative viability": 0.36}, {"cell line": "H3255", "relative viability": 0.483}, {"cell line": "COR-L23", "relative viability": 0.475}, {"cell line": "COR-L 105", "relative viability": 0.367}, {"cell line": "LOU-NH91", "relative viability": 0.601}, {"cell line": "ChaGo-K-1", "relative viability": 0.604}, {"cell line": "NCI-H2170", "relative viability": 0.509}, {"cell line": "NCI-H2405", "relative viability": 0.176}, {"cell line": "HOP-62", "relative viability": 0.64}, {"cell line": "NCI-H522", "relative viability": 0.948}, {"cell line": "LU99A", "relative viability": 0.536}, {"cell line": "BEN", "relative viability": 0.296}, {"cell line": "HCC-78", "relative viability": 0.425}, {"cell line": "NCI-H1792", "relative viability": 0.684}, {"cell line": "NCI-H1563", "relative viability": 0.432}]}]}
